Measured values taken from patent US20240182489A1, “New 5,6,7,8-Tetrahydropyrido[4',3':4,5]thieno[2,3-d]pyrimidin-4(3H)-one Derivatives as Sigma Ligands” (ACONDICIONAMIENTO TARRASENSE, priority 2021, published 2024).

Target: T1, human σ1 receptor (Homo sapiens, UniProt Q99720)
T1 construct: expressed in transfected cells; host or cells: HEK-293 (membranes)
Experiment: Human σ1 receptor radioligand assay
Format: binding
Conditions: [3H](+)-pentazocine radioligand, transfected HEK-293 membranes

T1 sequence (Q99720 whole entry): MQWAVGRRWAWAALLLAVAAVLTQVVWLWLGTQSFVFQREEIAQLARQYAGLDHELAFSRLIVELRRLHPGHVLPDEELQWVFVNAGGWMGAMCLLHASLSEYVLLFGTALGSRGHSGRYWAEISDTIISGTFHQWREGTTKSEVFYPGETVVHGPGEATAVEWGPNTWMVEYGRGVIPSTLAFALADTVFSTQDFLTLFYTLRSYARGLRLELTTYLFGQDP

In the case of `C[C@H](c1cccc(C#N)c1)n1cnc2sc3c(c2c1=O)CCNC3` [Example 14, (R)-3-(1-(4-Oxo-5,6,7,8-tetrahydropyrido[4′,3′:4,5]thieno[2,3-d]pyrimidin-3(4H)-yl)ethyl)benzonitrile], the Ki is reported as < 100 nM.
`C[C@H](c1ccc(F)cc1)n1cnc2sc3c(c2c1=O)CNCC3` [Example 17, (R)-3-(1-(4-Fluorophenyl)ethyl)-5,6,7,8-tetrahydropyrido[3′,4′:4,5]thieno[2,3-d]pyrimidin-4(3H)-one] was tested, and the Ki was > 500 nM.
In the case of `C[C@@H](c1ccc(C#N)c(F)c1)n1cnc2sc3c(c2c1=O)CCNC3` [Example 19, (S)-2-Fluoro-4-(1-(4-oxo-5,6,7,8-tetrahydropyrido[4′,3′:4,5]thieno[2,3-d]pyrimidin-3(4H)-yl)ethyl)benzonitrile], the Ki is reported as < 500 nM.
For `C[C@H](c1ccc(C#N)c(F)c1)n1cnc2sc3c(c2c1=O)CCNC3` [Example 20, (R)-2-fluoro-4-(1-(4-oxo-5,6,7,8-tetrahydropyrido[4′,3′:4,5]thieno[2,3-d]pyrimidin-3(4H)-yl)ethyl)benzonitrile], the Ki was > 500 nM.
With `Cc1nc(-c2ccc(C(C)n3cnc4sc5c(c4c3=O)CCNC5)cc2)no1` (centres unmarked) [Example 24, 3-(1-(4-(5-Methyl-1,2,4-oxadiazol-3-yl)phenyl)ethyl)-5,6,7,8-tetrahydropyrido[4′,3′:4,5]thieno[2,3-d]pyrimidin-4(3H)-one] the Ki was > 500 nM.
`C[C@@H](c1ccc(F)cc1Cl)n1cnc2sc3c(c2c1=O)CCNC3` [Example 25, (S)-3-(1-(2-Chloro-4-fluorophenyl)ethyl)-5,6,7,8-tetrahydropyrido[4′,3′:4,5]thieno[2,3-d]pyrimidin-4(3H)-one] was tested, and the Ki was < 500 nM.
For `C[C@H](c1ccc(F)cc1Cl)n1cnc2sc3c(c2c1=O)CCNC3` [Example 26, (R)-3-(1-(2-chloro-4-fluorophenyl)ethyl)-5,6,7,8-tetrahydropyrido[4′,3′:4,5]thieno[2,3-d]pyrimidin-4(3H)-one], the Ki was > 500 nM.
`C[C@@H](c1cc(F)cc(Cl)c1)n1cnc2sc3c(c2c1=O)CCNC3` [Example 27, (S)-3-(1-(3-Chloro-5-fluorophenyl)ethyl)-5,6,7,8-tetrahydropyrido[4′,3′:4,5]thieno[2,3-d]pyrimidin-4(3H)-one] was tested, and the Ki was < 100 nM.
`C[C@H](c1cc(F)cc(Cl)c1)n1cnc2sc3c(c2c1=O)CCNC3` [Example 28, (R)-3-(1-(3-chloro-5-fluorophenyl)ethyl)-5,6,7,8-tetrahydropyrido[4′,3′:4,5]thieno[2,3-d]pyrimidin-4(3H)-one] was tested, and the Ki was < 100 nM.
`C[C@@H](c1cc(Cl)ccc1F)n1cnc2sc3c(c2c1=O)CCNC3` [Example 29, (S)-3-(1-(5-Chloro-2-fluorophenyl)ethyl)-5,6,7,8-tetrahydropyrido[4′,3′:4,5]thieno[2,3-d]pyrimidin-4(3H)-one] was tested, and the Ki was < 500 nM.
For `C[C@H](c1cc(F)cc(C#N)c1)n1cnc2sc3c(c2c1=O)CCNC3` [Example 30, (R)-3-Fluoro-5-(1-(4-oxo-5,6,7,8-tetrahydropyrido[4′,3′:4,5]thieno[2,3-d]pyrimidin-3(4H)-yl)ethyl)benzonitrile], the Ki was < 100 nM.
